Measured values published in US20090062243A1, “Lupane-Type Triterpenoids Modified at 30-Position and Analogues Thereof” (ADVANCED LIFE SCIENCES, INC., priority 2007, published 2009).

Assays:
Assay type in all cases: cell-based
[1] = tested on: Daoy; assay: MTS cell viability assay, Daoy; conditions: cells incubated 72 h
Protocol: (§1) Cells were plated, the evening before treatment, for each treatment on 96-well plates (1×10^4 cells/well) in 100 μL volume per well. Analog solutions were prepared by diluting each test compound in DSMO (10 mM) with the appropriate cell growth media for each individual cell line, or in “Universal Media” if several cell lines were to be assayed in parallel, immediately prior to cell treatment. Universal Media consisted of 5 mL sodium pyruvate (100× liquid stock, MediaTech), 5 mL glucose (100×, 45% liquid stock, MediaTech), 5 mL Penicillin/Streptomycin (100× liquid stock, MediaTech), 10 mL sodium bicarbonate (50× liquid stock, MediaTech), 25 mL Fetal Calf Serum, 1.25 mL insulin (4 mg/mL, Gibco) and […] RPMI media with 2 mM L-glutamine for a total volume of 500 mL.
(§2) Cells were treated by aspirating plating media from each well and adding 80 μL of betulinic acid (control) or each analog solution in serial dilutions to the adherent cells. All treatments were performed in triplicate. Growth media (80 μL) was added to 3 blank wells (no cells) to measure background from the growth media. Growth media alone (no DMSO or test compound) was added to 3 wells containing cells to measure the baseline MTS activity. Vehicle (DMSO) control in serial dilutions, added to cells, was also included to monitor basal toxicity from DMSO. Cells were incubated at 37° C. for 72 h, or 120 h for the OVCAR cell lines. MTS reagent (per 96-well plate) were prepared by combining 2 mL of MTS working solution (Cell Titer AQueous Non-Radioactive Cell Proliferation Assay, Promega, cat#G1112), 100 μL of 0.92 mg/mL phenazine methosulfate/Dulbecco's PBS and 2.1 mL growth media. MTS reagent (40 μL) were added to each well and incubated at 37° C. for 1.5 to 4 h. Plates were gently shaken by hand until solution in each well appeared homogenous. Absorbances at 490 nm were measured on a Wallac Victor II plate reader at multiple time points following the addition of MTS reagent for each plate. Triplicate absorbance (490 nm) measurements were averaged following background (no cell) subtraction for each drug concentration. Percent Cell Viability was calculated for each drug concentration using the following equation:
(§3) {[Absorbance(analog treated)]/[Absorbance(DMSO treated)]}×100%
(§4) Cytotoxicity dose response for the triterpenoid derivatives synthesized in SK-MEL-2 (melanoma), A-375 (melanoma), Daoy (glioblastoma), LN-229 (glioblastoma), OVCAR-3 (ovarian carcinoma), HT-29 (colon carcinoma), MCF-7 (breast carcinoma) cell lines using the standard MTS assay is summarized in Table 1. In Table 1, compounds 22a-d and compounds 23a-c refer to structures 22 and 23 in Scheme 5, respectively. Compounds 24aa-an and 24ba-bq refer to structure 24 in Scheme 6. Compounds 26a-e refer to structure 26 in Scheme 6. Compounds 36a-c refer to structure 36 in Scheme 10.

[2] = tested on: SK-MEL-2 (melanoma); assay: MTS cell viability assay, SK-MEL-2
Protocol: as §1, §2, §3, §4

[3] = tested on: A-375 (melanoma); assay: MTS cell viability assay, A-375
Protocol: as §1, §2, §3, §4

[4] = tested on: OVCAR-3 (ovarian carcinoma); assay: MTS cell viability assay, OVCAR-3
Protocol: as §1, §2, §3, §4

[5] = tested on: HT-29 (colon carcinoma); assay: MTS cell viability assay, HT-29
Protocol: as §1, §2, §3, §4

[6] = tested on: MCF-7 (breast carcinoma); assay: MTS cell viability assay, MCF-7
Protocol: as §1, §2, §3, §4

[7] = tested on: LN-229 (glioblastoma); assay: MTS cell viability assay, LN-229
Protocol: as §1, §2, §3, §4

[8] = Homo sapiens, SK-MEL-2, cells incubated 72 h
[9] = Homo sapiens, A-375, cells incubated 72 h
[10] = Homo sapiens, OVCAR-3, 120 h for the OVCAR cell lines
[11] = Homo sapiens, HT-29, cells incubated 72 h
[12] = Homo sapiens, MCF7, cells incubated 72 h
[13] = Homo sapiens, LN-229, cells incubated 72 h

| SMILES | IC50 ([1]; Homo sapiens, Daoy) | IC50 [2, 8] | IC50 [3, 9] | IC50 [4, 10] | IC50 [5, 11] | IC50 [6, 12] | IC50 [7, 13] | IC50 [1] | IC50 ([2]; cells incubated 72 h) | IC50 ([3]; cells incubated 72 h) | IC50 ([4]; 120 h for the OVCAR cell lines) | IC50 ([5]; cells incubated 72 h) | IC50 ([6]; cells incubated 72 h) | IC50 ([7]; cells incubated 72 h) |
| --- | --- | --- | --- | --- | --- | --- | --- | --- | --- | --- | --- | --- | --- | --- |
| C=C(CO)[C@@H]1CC[C@]2(CO)CC[C@]3(C)[C@H](CC[C@@H]4[C@@]5(C)CCC(NCCc6ccc(O)c(O)c6)C(C)(C)[C@@H]5CC[C@]43C)[C@@H]12 (stereo partly drawn) [Compound 24aj] | 34 µM | 24 µM | 6 µM | 18 µM | 37 µM | 31 µM | 17 µM |  |  |  |  |  |  |  |
| C=C(CO)[C@@H]1CC[C@]2(COC3CCCCO3)CC[C@]3(C)[C@H](CC[C@@H]4[C@@]5(C)CCC(N)C(C)(C)[C@@H]5CC[C@]43C)[C@@H]12 (stereo partly drawn) [Compound 24aa] | 4 µM | 5 µM | 0.89 µM | 15 µM | 12 µM | 6 µM | 4 µM |  |  |  |  |  |  |  |
| C=C(CO)[C@@H]1CC[C@]2(COC3CCCCO3)CC[C@]3(C)[C@H](CC[C@@H]4[C@@]5(C)CCC(NCCOC)C(C)(C)[C@@H]5CC[C@]43C)[C@@H]12 (stereo partly drawn) [Compound 24ae] | 28 µM | 34 µM | 6 µM | 17 µM | 19 µM | 16 µM | 17 µM |  |  |  |  |  |  |  |
| C=C(C=O)[C@@H]1CC[C@]2(CO)CC[C@]3(C)[C@H](CC[C@@H]4[C@@]5(C)CCC(=O)C(C)(C)[C@@H]5CC[C@]43C)[C@@H]12 [Compound 9b] | 16 µM | 16 µM | 18 µM | 6 µM | 52 µM | 56 µM | 20 µM |  |  |  |  |  |  |  |
| C=C(CO)[C@@H]1CC[C@]2(COC3CCCCO3)CC[C@]3(C)[C@H](CC[C@@H]4[C@@]5(C)CCC(=O)C(C)(C)[C@@H]5CC[C@]43C)[C@@H]12 (stereo partly drawn) [Compound 5] | 35 µM | 34 µM |  | 48 µM | 75 µM | 37 µM | 46 µM |  |  |  |  |  |  |  |
| C=C(CNCCO)[C@@H]1CC[C@]2(COC3CCCCO3)CC[C@]3(C)[C@H](CC[C@@H]4[C@@]5(C)CCC(N)C(C)(C)[C@@H]5CC[C@]43C)[C@@H]12 (stereo partly drawn) [Compound 24ba] | 5 µM | 5 µM | 3 µM |  | 2 µM | 3 µM | 15 µM |  |  |  |  |  |  |  |
| C=C(CO)[C@@H]1CC[C@]2(COC3CCCCO3)CC[C@]3(C)[C@H](CC[C@@H]4[C@@]5(C)C=CC(=O)C(C)(C)[C@@H]5CC[C@]43C)[C@@H]12 (stereo partly drawn) [Compound 28] | 16 µM | 19 µM | 18 µM | 30 µM | 19 µM | 5 µM |  |  |  |  |  |  |  |  |
| C=C(C)[C@@H]1CC[C@]2(COC3CCCCO3)CC[C@]3(C)[C@H](CC[C@@H]4[C@@]5(C)C=C(C=O)C(=O)C(C)(C)[C@@H]5CC[C@]43C)[C@@H]12 (stereo partly drawn) [Compound 32] | < 2 µM | < 2 µM | 6 µM | 6 µM | 6 µM | 6 µM | 2 µM |  |  |  |  |  |  |  |
| C=C(CNCCO)[C@@H]1CC[C@]2(CO)CC[C@]3(C)[C@H](CC[C@@H]4[C@@]5(C)CCC(=O)C(C)(C)[C@@H]5CC[C@]43C)[C@@H]12 [Compound 22b] | 47 µM | 45 µM | 10 µM | 67 µM | 45 µM | 47 µM | 16 µM |  |  |  |  |  |  |  |
| C=C(C=O)[C@@H]1CC[C@]2(COC3CCCCO3)CC[C@]3(C)[C@H](CC[C@@H]4[C@@]5(C)CCC(=O)C(C)(C)[C@@H]5CC[C@]43C)[C@@H]12 (stereo partly drawn) [Compound 9a] | 7 µM | 7 µM | < 3 µM | 9 µM | 9 µM | 32 µM |  |  |  |  |  |  |  |  |
| C=C(CO)[C@@H]1CC[C@]2(CO)CC[C@]3(C)[C@H](CC[C@@H]4[C@@]5(C)CCC(NCCc6ccc(O)cc6)C(C)(C)[C@@H]5CC[C@]43C)[C@@H]12 (stereo partly drawn) [Compound 24ag] |  |  |  |  |  |  |  | 16 µM | 12 µM | 17 µM | 5 µM | 26 µM | 28 µM | 17 µM |
| C=C(CNCCO)[C@@H]1CC[C@]2(CO)CC[C@]3(C)[C@H](CC[C@@H]4[C@@]5(C)CCC(NC6CCC(O)CC6)C(C)(C)[C@@H]5CC[C@]43C)[C@@H]12 (stereo partly drawn) [Compound 24bj] |  |  |  |  |  |  |  | 5 µM | 5 µM | 7 µM |  | 2 µM | 4 µM | 16 µM |
| CC(CNCCO)[C@@H]1CC[C@]2(COC3CCCCO3)CC[C@]3(C)[C@H](CC[C@@H]4[C@@]5(C)CCC(O)C(C)(C)[C@@H]5CC[C@]43C)[C@@H]12 (stereo partly drawn) [Compound 36a] | 4 µM | 4 µM | 5 µM |  | 5 µM | 7 µM | 28 µM |  |  |  |  |  |  |  |
| C=C(CNCCO)[C@@H]1CC[C@]2(CO)CC[C@]3(C)[C@H](CC[C@@H]4[C@@]5(C)CCC(NCCO)C(C)(C)[C@@H]5CC[C@]43C)[C@@H]12 (stereo partly drawn) [Compound 24bh] |  |  |  |  |  |  |  | 13 µM | 7 µM | 6 µM |  | 2 µM | 6 µM | 16 µM |
| C=C(CO)[C@@H]1CC[C@]2(CO)CC[C@]3(C)[C@H](CC[C@@H]4[C@@]5(C)CCC(NCCNC(=O)OC(C)(C)C)C(C)(C)[C@@H]5CC[C@]43C)[C@@H]12 (stereo partly drawn) [Compound 24am] |  |  |  |  |  |  |  | 16 µM | 16 µM | 17 µM | 2.5 µM | > 75 µM | 35 µM | 17 µM |
| C=C(C(OC)OC)[C@@H]1CC[C@]2(CO)CC[C@]3(C)[C@H](CC[C@@H]4[C@@]5(C)CCC(=O)C(C)(C)[C@@H]5CC[C@]43C)[C@@H]12 [Compound 10] | 17 µM | 17 µM | 7 µM | 45 µM | 15 µM | 17 µM | 24 µM |  |  |  |  |  |  |  |
| C=C(CNCCO)[C@@H]1CC[C@]2(CO)CC[C@]3(C)[C@H](CC[C@@H]4[C@@]5(C)CCC(NCCOC)C(C)(C)[C@@H]5CC[C@]43C)[C@@H]12 (stereo partly drawn) [Compound 24bc] |  |  |  |  |  |  |  | 5 µM | 8 µM | 4 µM |  | 2 µM | 11 µM | 28 µM |
